Measurements taken from PubChem BioAssay AID180 (DTP/NCI, 2004).

Test system: BDF1 mice, Adenocarcinoma 755 s.c., tumor weight T/C
Experiment: NCI In Vivo Anticancer Drug Screen. Data for tumor model Adenocarcinoma 755 (subcutaneous) in B6D2F1 (BDF1) mice
Conditions: endpoint: mean tumor weight, higher = larger tumour
How it was run: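 Transplantable tumor implanted; mice dosed with compound or vehicle; survival or tumor size recorded; ratio of treated to vehicle control reported.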

[1] = dose: 25.0 mg/kg/injection, schedule: Q01DX011 (ip), vehicle: carboxymethylcellulose (CMC)
[2] = dose: 50.0 mg/kg/injection, schedule: Q01DX011 (ip), vehicle: carboxymethylcellulose (CMC)
[3] = dose: 100.0 mg/kg/injection, schedule: Q01DX011 (ip), vehicle: carboxymethylcellulose (CMC)
[4] = dose: 200.0 mg/kg/injection, schedule: Q01DX011 (ip), vehicle: carboxymethylcellulose (CMC)
[5] = dose: 25.0 mg/kg/injection, schedule: Q01DX011 (ip), vehicle: saline
[6] = dose: 75.0 mg/kg/injection, schedule: Q01DX011 (ip), vehicle: saline
[7] = dose: 225.0 mg/kg/injection, schedule: Q01DX011 (ip), vehicle: saline

With C[C@H]1C(=O)O[C@@H]2CCN3CC=C(COC(=O)[C@](C)(O)[C@@]1(C)O)[C@H]23 the T/C (dose: 12.5 mg/kg/injection, schedule: Q#A X022 (ip), vehicle: carboxymethylcellulose (CMC)) was 70 % of control, the T/C (dose: 12.5 mg/kg/injection, schedule: Q#A X022 (oral), vehicle: carboxymethylcellulose (CMC)) was 65 % of control and the T/C (dose: 22.5 mg/kg/injection, schedule: Q01DX011 (ip), vehicle: carboxymethylcellulose (CMC)) was 45 % of control. The T/C [1] was 74 % of control, the T/C (dose: 25.0 mg/kg/injection, schedule: Q#A X022 (ip), vehicle: carboxymethylcellulose (CMC)) was 69 % of control and the T/C (dose: 25.0 mg/kg/injection, schedule: Q#A X022 (oral), vehicle: carboxymethylcellulose (CMC)) was 44 % of control. For the same compound, the T/C (dose: 45.0 mg/kg/injection, schedule: Q01DX011 (ip), vehicle: carboxymethylcellulose (CMC)) was 34 % of control, the T/C [2] was 61 % of control and the T/C (dose: 50.0 mg/kg/injection, schedule: Q01DX011 (oral), vehicle: saline) was 36 % of control. The T/C (dose: 50.0 mg/kg/injection, schedule: Q#A X022 (ip), vehicle: carboxymethylcellulose (CMC)) was 22 % of control, the T/C (dose: 50.0 mg/kg/injection, schedule: Q#A X022 (oral), vehicle: carboxymethylcellulose (CMC)) was 7 % of control and the T/C (dose: 75.0 mg/kg/injection, schedule: Q03DX004 (ip), vehicle: carboxymethylcellulose (CMC)) was 101 % of control. For the same compound, the T/C (dose: 90.0 mg/kg/injection, schedule: Q01DX011 (ip), vehicle: carboxymethylcellulose (CMC)) was 15 % of control, the T/C [3] was 42 % of control and the T/C (dose: 100.0 mg/kg/injection, schedule: Q01DX011 (oral), vehicle: carboxymethylcellulose (CMC)) was 38 % of control. For the same compound, the T/C (dose: 100.0 mg/kg/injection, schedule: Q01DX011 (oral), vehicle: saline) was 27 % of control, the T/C (dose: 100.0 mg/kg/injection, schedule: Q#A X022 (ip), vehicle: carboxymethylcellulose (CMC)) was 15 % of control and the T/C (dose: 100.0 mg/kg/injection, schedule: Q#A X022 (oral), vehicle: carboxymethylcellulose (CMC)) was 7 % of control. The T/C (dose: 150.0 mg/kg/injection, schedule: Q03DX004 (ip), vehicle: carboxymethylcellulose (CMC)) was 46 % of control, the T/C (dose: 180.0 mg/kg/injection, schedule: Q01DX011 (ip), vehicle: carboxymethylcellulose (CMC)) was 7 % of control and the T/C (dose: 180.0 mg/kg/injection, schedule: Q01DX011 (ip), vehicle: methylcellulose (MC)) was 24 % of control. For the same compound, the T/C [4] was 13 % of control, the T/C (dose: 200.0 mg/kg/injection, schedule: Q01DX011 (oral), vehicle: carboxymethylcellulose (CMC)) was 14 % of control and the T/C (dose: 200.0 mg/kg/injection, schedule: Q01DX011 (oral), vehicle: saline) was 4 % of control. For the same compound, the T/C (dose: 300.0 mg/kg/injection, schedule: Q03DX004 (ip), vehicle: carboxymethylcellulose (CMC)) was 24 % of control, the T/C (dose: 400.0 mg/kg/injection, schedule: Q01DX011 (oral), vehicle: carboxymethylcellulose (CMC)) was 6 % of control and the T/C (dose: 400.0 mg/kg/injection, schedule: Q01DX011 (oral), vehicle: saline) was 5 % of control. For the same compound, the T/C (dose: 600.0 mg/kg/injection, schedule: Q03DX004 (ip), vehicle: carboxymethylcellulose (CMC)) was 16 % of control.

In the case of c1nc2c3c(n1)ncn3CCN2, the T/C [5] is reported as 85 % of control, the T/C [6] is reported as 74 % of control and the T/C [7] is reported as 99 % of control.

For COC1CC(O)C(COS(C)(=O)=O)O1 (configuration not stated), the T/C [5] was 100 % of control, the T/C [6] was 114 % of control and the T/C [7] was 113 % of control.

In the case of Cn1c(=O)c2c(nc(/N=C/c3ccccc3)n2C)n(C)c1=O, the T/C (dose: 25.0 mg/kg/injection, schedule: Q01DX011 (ip), vehicle: methylcellulose (MC)) is reported as 51 % of control.

For C=CC(O)CN1CC1=C (configuration not stated), the T/C (dose: 1.9 mg/kg/injection, schedule: Q01DX011 (ip), vehicle: methylcellulose (MC)) was 77 % of control, the T/C (dose: 3.75 mg/kg/injection, schedule: Q01DX011 (ip), vehicle: methylcellulose (MC)) was 111 % of control and the T/C (dose: 7.5 mg/kg/injection, schedule: Q01DX011 (ip), vehicle: methylcellulose (MC)) was 73 % of control. For the same compound, the T/C (dose: 15.0 mg/kg/injection, schedule: Q01DX011 (ip), vehicle: methylcellulose (MC)) was 21 % of control.

NC(CCCC(N)C(=O)O)C(=O)O (configuration not stated) was tested, and the T/C (dose: 200.0 mg/kg/injection, schedule: Q01DX011 (ip), vehicle: other) was 75 % of control, the T/C (dose: 400.0 mg/kg/injection, schedule: Q01DX011 (ip), vehicle: other) was 77 % of control and the T/C (dose: 600.0 mg/kg/injection, schedule: Q01DX011 (ip), vehicle: other) was 93 % of control.

With CCCCCCCCCCCCCCCCCCN(C)C the T/C (dose: 12.0 mg/kg/injection, schedule: Q01DX011 (ip), vehicle: distilled water + alcohol) was 61 % of control, the T/C (dose: 18.0 mg/kg/injection, schedule: Q01DX011 (ip), vehicle: distilled water + alcohol) was 43 % of control and the T/C (dose: 27.0 mg/kg/injection, schedule: Q01DX011 (ip), vehicle: distilled water + alcohol) was 51 % of control. The T/C (dose: 40.0 mg/kg/injection, schedule: Q01DX011 (ip), vehicle: distilled water + alcohol) was 36 % of control.

S=c1nc[nH]c2c1ncn2C1CCCS1 (configuration not stated) was tested, and the T/C (dose: 75.0 mg/kg/injection, schedule: Q01DX011 (ip), vehicle: methylcellulose (MC)) was 114 % of control and the T/C (dose: 225.0 mg/kg/injection, schedule: Q01DX011 (ip), vehicle: methylcellulose (MC)) was 43 % of control.

Nc1ccc2ccccc2c1N=Nc1ccccc1 was tested, and the T/C [1] was 68 % of control, the T/C [2] was 27 % of control and the T/C [3] was 34 % of control. For the same compound, the T/C [4] was 25 % of control.
